Experimental data: patent US6010876A, “Clavanins” (The Regents of the University of California, priority 1996, dated 2000)

Experiments:
L. monocytogenes EGD = test: radial diffusion assay; format: cell-based, Listeria monocytogenes; settings: for potency relative to Clavanins A and B: L. monocytogenes Strain EGD, radial diffusion (FIG. 5)
Method: (§1) In more detail, the filtrates (≈3.5 mg of protein by BCA) were concentrated to 2 ml by vacuum centrifugation in a Speed Vac Concentrator (Savant Instruments, Hicksville, N.Y.). Gel permeation chromatography was performed on a 1.2×65 cm BioGel P-10 gel permeation column with 5% acetic acid. Preparative continuous acid-urea PAGE electrophoresis was performed as described by Harwig, S. S. L. et al., Anal Biochem (1993) 208:382. Active fractions were pooled and purified by RP-HPLC a 4.6×250 mm Vydac C18 column, using various linear gradients of acetonitrile in 0.1% trifluoroacetic acid (TFA) or […],) heptafluorobutyric acid (HFBA). Throughout this multistep procedure, fractions were lyophilized, concentrated and tested for antimicrobial activity against Listeria monocytogenes strain EGD by a radial diffusion technique described in Lehrer, R. I. et al., J Immunol Methods (1991) 137:167. In these assays, the underlay gels contained 9 mM sodium phosphate and 1 mM sodium citrate buffer, 0.30 mg/ml of trypticase soy broth powder (BBL, Cockeysville, Md.) and […] at a final pH of 6.5.
(§2) In addition to Cecropin P1 and Magainin 1, the activity of Clavanin A(K) was also tested. Clavanin A(K) is identical to Clavanin A except that all of the histidine residues are replaced by lysine. […] The data are provided as minimal bacteriocidal concentrations expressed in μg/ml which are the X-intercepts of radial diffusion assays performed at pH 6.5 in an underlay that contained 10 mM buffer ([…]), 1% agarose and 0.3 mg trypticase soy powder/ml.
(§3) The effect of pH on antimicrobial activity against several organisms was tested in a pH range wherein histidine becomes comparably charged to lysine. FIGS. 6-8 show the results for native or synthetic Clavanin A and synthetic Clavanin A(K) using defensin NP-2 as a control, with respect to L. monocytogenes, E. coli, and C. albicans respectively. The radial diffusion assays were conducted as described in Examples 1 and 3 above.

E. coli ML-35p = test: radial diffusion assay; format: cell-based; settings: for potency relative to Clavanins A and B: E. coli ML-35P, radial diffusion (FIG. 5)
Method: as §1, §2, §3

E. coli BAS 894 = test: radial diffusion assay, minimal bactericidal concentration; format: cell-based; settings: X-intercept of radial diffusion assay, pH 6.5
Method: as §1, §2

E. coli mcr 106 = test: as above; format: cell-based; settings: X-intercept of radial diffusion assay, pH 6.5
Method: as §1, §2

E. faecalis CDC 21 (VR) = test: as above; format: cell-based; settings: X-intercept of radial diffusion assay, pH 6.5
Method: as §1, §2

E. faecium 94.132 (VR) = test: as above; format: cell-based; settings: X-intercept of radial diffusion assay, pH 6.5
Method: as §1, §2

E. faecium = test: as above; format: cell-based; settings: E. faecium (strain not given); X-intercept of radial diffusion assay, pH 6.5
Method: as §1, §2

K. pneumoniae 2270 = test: as above; format: cell-based; settings: X-intercept of radial diffusion assay, pH 6.5
Method: as §1, §2

MRSA 28841 = test: as above; format: cell-based; settings: X-intercept of radial diffusion assay, pH 6.5
Method: as §1, §2

MRSA 30371 = test: as above; format: cell-based; settings: X-intercept of radial diffusion assay, pH 6.5
Method: as §1, §2

P. aeruginosa MR 2133 = test: as above; format: cell-based; settings: X-intercept of radial diffusion assay, pH 6.5
Method: as §1, §2

P. aeruginosa MR 3007 = test: as above; format: cell-based; settings: X-intercept of radial diffusion assay, pH 6.5
Method: as §1, §2

P. aeruginosa SBI-N = test: as above; format: cell-based; settings: X-intercept of radial diffusion assay, pH 6.5
Method: as §1, §2

S. aureus 930918-3 = test: as above; format: cell-based; settings: X-intercept of radial diffusion assay, pH 6.5
Method: as §1, §2

S. typhimurium 14028s = test: as above; format: cell-based; settings: X-intercept of radial diffusion assay, pH 6.5
Method: as §1, §2

S. typhimurium 7953s = test: as above; format: cell-based; settings: X-intercept of radial diffusion assay, pH 6.5
Method: as §1, §2

| Substance | potency relative to Clavanins A and B (L. monocytogenes EGD) | potency relative to Clavanins A and B (E. coli ML-35p) | minimal bacteriocidal concentration (E. coli BAS 894) [µg/mL] | minimal bacteriocidal concentration (E. coli mcr 106) [µg/mL] | minimal bacteriocidal concentration (E. faecalis CDC 21 (VR)) [µg/mL] | minimal bacteriocidal concentration (E. faecium 94.132 (VR)) [µg/mL] | minimal bacteriocidal concentration (E. faecium) [µg/mL] | minimal bacteriocidal concentration (K. pneumoniae 2270) [µg/mL] | minimal bacteriocidal concentration (MRSA 28841) [µg/mL] | minimal bacteriocidal concentration (MRSA 30371) [µg/mL] | minimal bacteriocidal concentration (P. aeruginosa MR 2133) [µg/mL] | minimal bacteriocidal concentration (P. aeruginosa MR 3007) [µg/mL] | minimal bacteriocidal concentration (P. aeruginosa SBI-N) [µg/mL] | minimal bacteriocidal concentration (S. aureus 930918-3) [µg/mL] | minimal bacteriocidal concentration (S. typhimurium 14028s) [µg/mL] | minimal bacteriocidal concentration (S. typhimurium 7953s) [µg/mL] | minimal bacteriocidal concentration (L. monocytogenes EGD; L. monocytogenes EGD, X-intercept of radial diffusion assay, pH 6.5) [µg/mL] | minimal bacteriocidal concentration (E. coli ML-35p; E. coli ML-35p, X-intercept of radial diffusion assay, pH 6.5) [µg/mL] |
| --- | --- | --- | --- | --- | --- | --- | --- | --- | --- | --- | --- | --- | --- | --- | --- | --- | --- | --- |
| AFKLL GRIIH HVGNF VY'GFS HVF* [Clavanin D] | 3-5 fold | 3-5 fold |  |  |  |  |  |  |  |  |  |  |  |  |  |  |  |  |
| Cecropin P1: known antimicrobial peptide used for comparison (SWLSKTAKKLENSAKKRISEGIAIAIQGGPR; Cecropin-P1; UniProt P14661 14-44, looked up) |  |  | 0.41 | 0.54 | > 200 | 7.5 | 6.5 | 0.70 | > 200 | > 200 | 0.51 | 0.71 | 0.44 | > 200 | 0.72 | 0.43 | 6.0 | 0.64 |
| VFHLL GKIIH HVGNF VY'GFS HVF* [Clavanin C] | 3-5 fold | 3-5 fold |  |  |  |  |  |  |  |  |  |  |  |  |  |  |  |  |
